Results taken from patent US9029409B2, “Isoxazolines as therapeutic agents” (AbbVie Inc., priority 2011, dated 2015).
pIC50: −log10 of the molar value.

These compounds were tested against T1, recombinant human MMP13 catalytic domain (CD) (Homo sapiens, UniProt P45452) (assay: MMP-13 catalytic domain FRET enzyme assay). Conditions: recombinant human MMP-13 catalytic domain.
T1 construct: catalytic domain (CD) construct encompassing residues 20-274 (SWISS-PROT P45452); made in house
Format: biochemical
Procedure: A recombinant human MMP13 catalytic domain (CD) construct encompassing residues 20-274 (SWISS-PROT P45452) was generated by synthetic gene methods and bacterial expression. MMP-13 activity assays were performed using the recombinant human MMP-13 CD at a 0.4 nM concentration and the fluorogenic substrate (QXL-520)-K-P-L-A˜Nva-Dap(5-FAM)-A-R-NH2 (Anaspec cat #60554-01, San Jose, Calif.) at a 0.25 μM concentration in assay buffer containing […], pH 7.5, 10 mM CaCl2, 150 mM NaCl, 0.05% Brij 35. The assay is based on the cleavage of this substrate by MMP-13, resulting in decrease of FRET between the donor-acceptor pair and subsequent fluorescence enhancement. The assays were carried out in 384-well plates (Greiner cat #781076, Germany) for 60 min at RT. After the incubation period, the reaction was quenched by the addition of 5 μL of 500 mM EDTA (100 mM final concentration) (Rankem, Cat #E0120, India) mixed well and the rate of substrate hydrolysis was determined by monitoring change in fluorescence at excitation and emission wavelengths of 485 nm and 535 nm respectively. Fluorescence was measured on a Victor V5 plate reader (Perkin Elmer, Turku, Finland). The test compounds used for assessing the potency of inhibition of MMP-13 activity were dissolved in DMSO (final DMSO concentration in the assay was 5%). Selected compounds were also screened against full length MMP13 (R&D Systems (Cat. No. 511-MM-010), Minneapolis, Minn.) at 2 nM concentration using the same fluorogenic substrate mentioned above. The enzyme was activated using 1 m Mp-aminophenylmercuric acetate—APMA (Cat #A-9563, Sigma, Germany).
Data analysis: The percent inhibition of the enzyme activity in presence of test compounds were calculated using the equation, percent (%) Inhibition=100−[(Fi/Fc)*100] where Fc is the fluorescence corresponding to initial enzyme activity and Fi is the fluorescence corresponding to the enzyme activity in presence of inhibitor. The IC50 values were calculated by fitting the dose-response data to a sigmoidal curve fitting equation using Graph Pad prism software (Version 5, La Jolla, Calif.).
MMP13 Catalytic Domain (CD) Potency of the Described Examples Determined Using Time Resolved Fluorescence Resonance Energy Transfer (FRET) Enzyme Assays: […]

Structure (SMILES) | pIC50
COc1ccc(CNC(=O)c2cc(C3=NOC(c4nn[nH]n4)C3)nc(C)n2)cc1 (stereo not drawn) | < 6.00
CC(=O)NC[C@@H]1CO[C@@H]([C@@H]2CC(c3cc(C(=O)NCc4ccc(F)c(Cl)c4)nc(C)n3)=NO2)CO1 | > 8.00
Cc1nc(C(=O)NCc2ccc(F)c(Cl)c2)cc(C2=NO[C@H]([C@H]3CO[C@H](CS(C)(=O)=O)CO3)C2)n1 | > 8.00
Cc1nc(C(=O)NCc2ccc(F)cc2)cc(C2=NOC(c3ccc(=O)n(C)c3)C2)n1 (stereo not drawn) | 7.00 to 8.00
COc1cc(CNC(=O)c2cc(C3=NOC(c4ccc(=O)n(CCO)c4)C3)nc(C)n2)ccc1F (stereo not drawn) | 7.00 to 8.00
Cc1nc(C(=O)NCc2ccc(F)c(F)c2)cc(C2=NOC(c3ccc(=O)n(C)c3)C2)n1 (stereo not drawn) | 7.00 to 8.00
Cc1nc(C(=O)NCc2ccc(F)c(F)c2)cc(C2=NOC(c3ccc(C#N)nn3)C2)n1 (stereo not drawn) | 7.00 to 8.00
Cc1nc(C(=O)NCc2ccc(F)c(Cl)c2)cc(C2=NOC(c3ccc(C#N)nn3)C2)n1 (stereo not drawn) | 7.00 to 8.00
Cc1nc(C(=O)NCc2cccc(F)c2)cc(C2=NO[C@H]([C@H]3CO[C@H](CO)CO3)C2)n1 | < 6.00
Cc1nc(C(=O)NCc2cccc(F)c2)cc(C2=NO[C@@H]([C@H]3CO[C@H](CO)CO3)C2)n1 | < 6.00
Cc1nc(C(=O)NCc2ccc3oc(C)nc3c2)cc(C2=NO[C@H]([C@H]3CO[C@H](CO)CO3)C2)n1 | 7.00 to 8.00
COC[C@@H]1CO[C@@H]([C@H]2CC(c3cc(C(=O)NCc4ccc(F)c(OC)c4)nc(C)n3)=NO2)CO1 | < 6.00
Cc1nc(C(=O)NCc2ccc(F)c(C)c2)cc(C2=NOC([C@H]3CC[C@H](NC(=O)[C@H](C)O)CC3)C2)n1 (stereo partly drawn) | > 8.00
Cc1nc(C(=O)NCc2ccc3c(c2)OCCO3)cc(C2=NO[C@H]([C@H]3CO[C@H](CO)CO3)C2)n1 | 7.00 to 8.00
Cc1nc(C(=O)NCc2ccc3c(c2)NC(=O)CO3)cc(C2=NO[C@@H]([C@H]3CO[C@H](CO)CO3)C2)n1 | 7.00 to 8.00
COc1cc(CNC(=O)c2cc(C3=NOC(c4ccc(=O)n(C)n4)C3)nc(C)n2)ccc1F (stereo not drawn) | 7.00 to 8.00
COc1ccc(CNC(=O)c2cc(C3CC(c4ccc(OCCO)cc4)=NO3)nc(C)n2)cc1 (stereo not drawn) | 7.00 to 8.00
COc1ccc(CNC(=O)c2cc(C3CC(c4ccccc4)=NO3)nc(C)n2)cc1 (stereo not drawn) | 6.00 to 7.00
COc1cc(CNC(=O)c2cc(C3=NO[C@@H](C4CCN(C(=O)CO)CC4)C3)nc(C)n2)ccc1F | 7.00 to 8.00
COc1cc(CNC(=O)c2cc(C3=NO[C@H](c4ccc(CO)cc4)C3)nc(C)n2)ccc1F | < 6.00
CC(=O)N[C@H]1CC[C@H]([C@@H]2CC(c3cc(C(=O)NCc4ccc(F)c(C)c4)nc(C)n3)=NO2)CC1 | > 8.00
CC(=O)N[C@H]1CC[C@H]([C@H]2CC(c3cc(C(=O)NCc4ccc(F)c(C)c4)nc(C)n3)=NO2)CC1 | 7.00 to 8.00
COc1cc(CNC(=O)c2cc(C3=NO[C@H]([C@H]4CC[C@H](NC(=O)[C@H](C)O)CC4)C3)nc(C)n2)ccc1F | > 8.00
Cc1nc(C(=O)NCc2ccc(F)c(C)c2)cc(C2=NO[C@H]([C@H]3CC[C@H](NC(=O)[C@H](C)O)CC3)C2)n1 | > 8.00
COc1cc(CNC(=O)c2cc(C3=NO[C@H](c4ccc(=O)n(C)c4)C3)nc(C)n2)ccc1F | > 8.00
CC(=O)N[C@H]1CC[C@H](C2CC(c3cc(C(=O)NCc4ccncc4)nc(C)n3)=NO2)CC1 (stereo partly drawn) | 7.00 to 8.00
Cc1nc(C(=O)NCc2ccncc2)cc(C2=NO[C@H]([C@H]3CO[C@H](CO)CO3)C2)n1 | 7.00 to 8.00
CC(=O)N[C@H]1CC[C@H](C2CC(c3cc(C(=O)NCc4ccn(C)c(=O)c4)nc(C)n3)=NO2)CC1 (stereo partly drawn) | < 6.00
CC(=O)N[C@H]1CC[C@H](C2CC(c3cc(C(=O)NCc4ccc5c(c4)NC(=O)CO5)nc(C)n3)=NO2)CC1 (stereo partly drawn) | > 8.00
COc1cc([C@@H](C)NC(=O)c2cc(C3=NOC(c4ccccc4)C3)nc(C)n2)ccc1F (stereo partly drawn) | < 6.00

Next, values leading:

pIC50 | Structure (SMILES)
> 8.00 | COc1cc(CNC(=O)c2cc(C3=NOC(c4cccnc4)C3)nc(C)n2)ccc1F (stereo not drawn)
> 8.00 | COc1cc(CNC(=O)c2cc(C3=NOC(c4ccc(CO)cc4)C3)nc(C)n2)ccc1F (stereo not drawn)
7.00 to 8.00 | COc1cc(CNC(=O)c2cc(C3=NOC(c4ccc(N5CCC(CO)CC5)cc4)C3)nc(C)n2)ccc1F (stereo not drawn)
7.00 to 8.00 | COc1cc(CNC(=O)c2cc(C3=NOC(c4ccc(CN5CCOCC5)cc4)C3)nc(C)n2)ccc1F (stereo not drawn)
> 8.00 | COc1cc(CNC(=O)c2cc(C3=NOC(c4ccc(CN5CCSCC5)cc4)C3)nc(C)n2)ccc1F (stereo not drawn)
> 8.00 | COc1cc(CNC(=O)c2cc(C3=NOC(c4cccc(C(N)=O)c4)C3)nc(C)n2)ccc1F (stereo not drawn)
> 8.00 | Cc1nc(C(=O)NCc2ccc(F)c(C)c2)cc(C2=NO[C@H]([C@H]3CO[C@H](CS(C)(=O)=O)CO3)C2)n1
> 8.00 | CC(=O)NC[C@@H]1CO[C@@H]([C@@H]2CC(c3cc(C(=O)NCc4ccc(F)c(C)c4)nc(C)n3)=NO2)CO1
< 6.00 | Cc1cccc(CNC(=O)c2cc(C3=NO[C@H]([C@H]4CO[C@H](CO)CO4)C3)nc(C)n2)c1
< 6.00 | Cc1cccc(CNC(=O)c2cc(C3=NO[C@@H]([C@H]4CO[C@H](CO)CO4)C3)nc(C)n2)c1
7.00 to 8.00 | Cc1nc(C(=O)NCc2ccc(F)cc2)cc(C2=NOC(c3ccc(C#N)nn3)C2)n1 (stereo not drawn)
> 8.00 | Cc1nc(C(=O)NCc2ccc(F)c(Cl)c2)cc(C2=NOC(c3ccc(=O)n(C)c3)C2)n1 (stereo not drawn)
> 8.00 | CC(=O)N[C@H]1CC[C@H](C2CC(c3cc(C(=O)NCc4ccc(F)c(Cl)c4)nc(C)n3)=NO2)CC1 (stereo partly drawn)
7.00 to 8.00 | CC(=O)N[C@H]1CC[C@H](C2CC(c3cc(C(=O)NCc4ccc(F)cc4)nc(C)n3)=NO2)CC1 (stereo partly drawn)
7.00 to 8.00 | CC(=O)N[C@H]1CC[C@H](C2CC(c3cc(C(=O)NCc4ccc(F)c(F)c4)nc(C)n3)=NO2)CC1 (stereo partly drawn)
7.00 to 8.00 | Cc1nc(C(=O)NCc2ccc3c(c2)CCO3)cc(C2=NO[C@H]([C@H]3CO[C@H](CO)CO3)C2)n1
< 6.00 | Cc1nc(C(=O)NCc2ccc3oc(C)nc3c2)cc(C2=NO[C@@H]([C@H]3CO[C@H](CO)CO3)C2)n1
7.00 to 8.00 | COC[C@@H]1CO[C@@H]([C@@H]2CC(c3cc(C(=O)NCc4ccc(F)c(OC)c4)nc(C)n3)=NO2)CO1

pIC50 | Structure (SMILES)
> 8.00 | COc1cc(CNC(=O)c2cc(C3=NO[C@H]([C@H]4CO[C@H](CNC(=O)[C@H](C)O)CO4)C3)nc(C)n2)ccc1F
< 6.00 | Cc1nc(C(=O)NCc2ccc3c(c2)OCCO3)cc(C2=NO[C@@H]([C@H]3CO[C@H](CO)CO3)C2)n1
7.00 to 8.00 | Cc1nc(C(=O)NCc2ccc(F)cc2)cc(C2=NOC([C@H]3CC[C@H](NC(=O)[C@H](C)O)CC3)C2)n1 (stereo partly drawn)
> 8.00 | Cc1nc(C(=O)NCc2ccc3c(c2)NC(=O)CO3)cc(C2=NO[C@H]([C@H]3CO[C@H](CO)CO3)C2)n1
7.00 to 8.00 | COc1cc(CNC(=O)c2cc(C3=NOC(c4ccn(C)c(=O)c4)C3)nc(C)n2)ccc1F (stereo not drawn)
> 8.00 | COc1cc(CNC(=O)c2cc(C3=NOC(c4ccc(=O)n(C5CC5)c4)C3)nc(C)n2)ccc1F (stereo not drawn)
7.00 to 8.00 | COc1cc(CNC(=O)c2cc(C3CC(c4ccccc4)=NO3)nc(C)n2)ccc1F (stereo not drawn)
7.00 to 8.00 | COc1cc(CNC(=O)c2cc(C3CC(c4ccc(OCCO)cc4)=NO3)nc(C)n2)ccc1F (stereo not drawn)
> 8.00 | COc1cc(CNC(=O)c2cc(C3=NO[C@H](C4CCN(C(=O)CO)CC4)C3)nc(C)n2)ccc1F
> 8.00 | COc1ccc(CNC(=O)c2cc(C3=NO[C@H](c4ccc(OCCO)cc4)C3)nc(C)n2)cc1
7.00 to 8.00 | COc1ccc(CNC(=O)c2cc(C3=NO[C@@H](c4ccc(OCCO)cc4)C3)nc(C)n2)cc1
> 8.00 | COc1cc(CNC(=O)c2cc(C3=NO[C@@H](c4ccc(CO)cc4)C3)nc(C)n2)ccc1F
7.00 to 8.00 | COc1cc(CNC(=O)c2cc(C3=NO[C@@H]([C@H]4CC[C@H](NC(=O)[C@H](C)O)CC4)C3)nc(C)n2)ccc1F
7.00 to 8.00 | Cc1nc(C(=O)NCc2ccc(F)c(C)c2)cc(C2=NO[C@@H]([C@H]3CC[C@H](NC(=O)[C@H](C)O)CC3)C2)n1
> 8.00 | Cc1nc(C(=O)NCc2ccc(F)c(Cl)c2)cc(C2=NO[C@H]([C@H]3CC[C@H](NC(=O)[C@H](C)O)CC3)C2)n1
7.00 to 8.00 | Cc1nc(C(=O)NCc2ccc(F)c(Cl)c2)cc(C2=NO[C@@H]([C@H]3CC[C@H](NC(=O)[C@H](C)O)CC3)C2)n1
6.00 to 7.00 | COc1cc(CNC(=O)c2cc(C3=NO[C@@H](c4ccc(=O)n(C)c4)C3)nc(C)n2)ccc1F
< 6.00 | Cc1nc(C(=O)NCc2ccncc2)cc(C2=NO[C@@H]([C@H]3CO[C@H](CO)CO3)C2)n1
